ChEMBL document CHEMBL1201862, “PubChem BioAssay data set” (2004)
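1) Cells in 96-well plates. 2) Compound, 48 h, 5 concentrations. 3) Linear interpolation between surrounding doses. 4) Unreached endpoint = highest concentration. The concentration for 50% growth inhibition is given as GI50.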 The source made the active and inactive calls. Rule as the data show it: active = GI50 up to about 1.1 µM and inactive = higher.

Tests used:
Test in all cases: NCI-60 cell line screen, 48 h
[1] = tested on: OVCAR-4
[2] = tested on: CAKI-1
[3] = tested on: SR
[4] = tested on: SF-539
[5] = tested on: RPMI-8226
[6] = tested on: ACHN
[7] = tested on: LOX IMVI
[8] = tested on: M14
[9] = tested on: SK-MEL-28
[10] = tested on: SNB-19
[11] = tested on: SNB-75
[12] = tested on: HL-60
[13] = tested on: PC-3
[14] = tested on: UACC-257
[15] = tested on: TK-10
[16] = tested on: OVCAR-3
[17] = tested on: SK-OV-3
[18] = tested on: RXF 393
[19] = tested on: NCI-H226
[20] = tested on: K562

Row | Structure (SMILES) | GI50 [1] | GI50 [2] | GI50 [3] | GI50 [4] | GI50 [5] | GI50 [6] | GI50 [7] | GI50 [8] | GI50 [9] | GI50 [10] | GI50 [11] | GI50 [12] | GI50 [13] | GI50 [14] | GI50 [15] | GI50 [16] | GI50 [17] | GI50 [18] | GI50 [19] | GI50 [20]
1 | Clc1c2nc3ccccc3c-2[nH]c2ccccc12 | > 100 µM (inactive) | 9.16 µM (inactive) | 4.37 µM (inactive) | 13.7 µM (inactive) | 7.96 µM (inactive) | 21.3 µM (inactive) | 11.7 µM (inactive) | 36.2 µM (inactive) | 52.4 µM (inactive) | > 100 µM (inactive) | 39.9 µM (inactive) | 15.6 µM (inactive) | 17.5 µM (inactive) | 50.2 µM (inactive) | 98.4 µM (inactive) | 69.7 µM (inactive) | – | – | – | –
2 | COC(=O)/C=C\C(C#N)(C#N)/N=C/c1cccc(OC)c1 | 6.67 µM (inactive) | 1.92 µM (inactive) | – | 2.53 µM (inactive) | 2.71 µM (inactive) | 2.61 µM (inactive) | 7.16 µM (inactive) | 4.12 µM (inactive) | 14.3 µM (inactive) | 23.3 µM (inactive) | 15.9 µM (inactive) | > 100 µM (inactive) | 15.8 µM (inactive) | 14 µM (inactive) | 1.91 µM (inactive) | 11.5 µM (inactive) | 25.3 µM (inactive) | 3.18 µM (inactive) | 14.3 µM (inactive) | 11.1 µM (inactive)
3 | CCOP(=O)(OCC)c1ccc(=O)[nH]c1-c1cccs1 | > 100 µM (inactive) | > 100 µM (inactive) | > 100 µM (inactive) | > 100 µM (inactive) | > 100 µM (inactive) | > 100 µM (inactive) | – | > 100 µM (inactive) | > 100 µM (inactive) | > 100 µM (inactive) | > 100 µM (inactive) | – | > 100 µM (inactive) | > 100 µM (inactive) | > 100 µM (inactive) | > 100 µM (inactive) | > 100 µM (inactive) | > 100 µM (inactive) | > 100 µM (inactive) | > 100 µM (inactive)
4 | CCc1ccc2c(c1)/C(=C1/Nc3ccccc3/C1=N/O)C(=O)N2 | 6.67 µM (inactive) | 2.24 µM (inactive) | 3.29 µM (inactive) | – | 5.15 µM (inactive) | 3.84 µM (inactive) | 6.76 µM (inactive) | 12.6 µM (inactive) | 12.9 µM (inactive) | 14.7 µM (inactive) | 11.8 µM (inactive) | – | 6.85 µM (inactive) | 15.2 µM (inactive) | 11.5 µM (inactive) | 3.4 µM (inactive) | 2.44 µM (inactive) | 2.81 µM (inactive) | 12 µM (inactive) | 4.5 µM (inactive)
5 | COc1c(-c2ccc(O)c(O)c2)oc2c(O)c(O)cc(O)c2c1=O | 50.6 µM (inactive) | 64.6 µM (inactive) | 22 µM (inactive) | > 100 µM (inactive) | 31.8 µM (inactive) | > 100 µM (inactive) | 15.2 µM (inactive) | > 10 µM (inactive) | > 100 µM (inactive) | > 100 µM (inactive) | – | > 10 µM (inactive) | > 100 µM (inactive) | > 100 µM (inactive) | > 100 µM (inactive) | 56.8 µM (inactive) | 85.9 µM (inactive) | – | > 100 µM (inactive) | 20.8 µM (inactive)
6 | CC1Cc2cc(O)c(O)cc2-c2cc(O)c(O)cc2CC1C (stereo unspecified) | 15.6 µM (inactive) | 17.8 µM (inactive) | 4.85 µM (inactive) | 5.85 µM (inactive) | 32.4 µM (inactive) | 24.6 µM (inactive) | 10.2 µM (inactive) | 11.5 µM (inactive) | 11.9 µM (inactive) | 26.5 µM (inactive) | > 100 µM (inactive) | – | 19.3 µM (inactive) | 12.3 µM (inactive) | 26.4 µM (inactive) | 10.9 µM (inactive) | 36.8 µM (inactive) | 18.1 µM (inactive) | 24.3 µM (inactive) | 12.8 µM (inactive)
7 | C1=C[C@]2(CCC13OCCO3)COc1ccccc12 | 47 µM (inactive) | > 100 µM (inactive) | 29.9 µM (inactive) | – | 25.5 µM (inactive) | 36.6 µM (inactive) | 21.5 µM (inactive) | 26.6 µM (inactive) | 49.3 µM (inactive) | 38 µM (inactive) | 42.3 µM (inactive) | 6.81 µM (inactive) | 35.8 µM (inactive) | 43.1 µM (inactive) | 49.1 µM (inactive) | 36.1 µM (inactive) | 53.2 µM (inactive) | – | 31.9 µM (inactive) | 11.9 µM (inactive)
8 | COc1cccc(/N=N/C(=N\NC(=O)c2ccc(C)cc2)c2ccc(N(CCC#N)CCC#N)cc2C)c1 | 25.1 µM (inactive) | > 100 µM (inactive) | 61.1 µM (inactive) | > 100 µM (inactive) | > 100 µM (inactive) | > 100 µM (inactive) | > 100 µM (inactive) | > 100 µM (inactive) | > 100 µM (inactive) | > 100 µM (inactive) | 53.1 µM (inactive) | – | 64.6 µM (inactive) | 42.8 µM (inactive) | > 100 µM (inactive) | 37.6 µM (inactive) | 48.2 µM (inactive) | 74.5 µM (inactive) | > 100 µM (inactive) | > 100 µM (inactive)
9 | C=C1CC(C)(c2cccc(Nc3nc4ccccc4c4occc34)c2)OC1=O (stereo unspecified) | 7.89 µM (inactive) | 3.98 µM (inactive) | – | 1.69 µM (inactive) | 2.03 µM (inactive) | 4.8 µM (inactive) | 1.99 µM (inactive) | 2.84 µM (inactive) | 13.9 µM (inactive) | 17.2 µM (inactive) | 5.58 µM (inactive) | 2.27 µM (inactive) | 5.52 µM (inactive) | 0.0218 µM (active) | 3.56 µM (inactive) | 4.8 µM (inactive) | 13.7 µM (inactive) | 2.36 µM (inactive) | 1.5 µM (inactive) | –
10 | NC(=O)c1ncn2c(=O)n(CCl)nnc12 | > 100 µM (inactive) | > 100 µM (inactive) | 15.4 µM (inactive) | 72.8 µM (inactive) | 24.3 µM (inactive) | 47.9 µM (inactive) | 15.8 µM (inactive) | > 100 µM (inactive) | > 100 µM (inactive) | > 100 µM (inactive) | > 100 µM (inactive) | – | > 100 µM (inactive) | > 100 µM (inactive) | 63.1 µM (inactive) | > 100 µM (inactive) | 83 µM (inactive) | > 100 µM (inactive) | > 100 µM (inactive) | 72.6 µM (inactive)
11 | CC1=C2C(=O)[C@H]3[C@@H](CC=C4C[C@@H](O)CC[C@@]43C)[C@@H]2CC[C@]12O[C@@H]1C[C@H](C)CN[C@H]1[C@H]2C [JERVINE] | > 44.5 µM (inactive) | > 40.8 µM (inactive) | – | > 47.9 µM (inactive) | > 100 µM (inactive) | > 41.3 µM (inactive) | > 41.1 µM (inactive) | > 41.7 µM (inactive) | > 49.3 µM (inactive) | > 41.7 µM (inactive) | > 36.4 µM (inactive) | > 44.2 µM (inactive) | > 100 µM (inactive) | > 49.3 µM (inactive) | > 37.2 µM (inactive) | > 40.6 µM (inactive) | > 40.6 µM (inactive) | > 38.5 µM (inactive) | > 43.8 µM (inactive) | > 61.9 µM (inactive)
